From patent US20260062422A1 (Halda Therapeutics OpCo, Inc., priority 2022, published 2026)

Columns and labels:
BRD4-BD1 = molecular target: T1, BRD4-BD1 (Homo sapiens, UniProt O60885); test: bromoKdELECT assay for binding affinity to BRD4-BD1; details: Table 6
T1 construct: made in house; host or cells: T7 phage grown in an E. coli host derived from BL21
Procedure: Compounds were tested using a bromoKdELECT assay. T7 phage strains displaying bromodomains were grown in parallel in 24-well blocks in an E. coli host derived from the BL21 strain. E. coli were grown to log-phase and infected with T7 phage from a frozen stock (multiplicity of infection=0.4) and incubated with shaking at 32° C. until lysis (90-150 minutes). The lysates were centrifuged (5,000×g) and filtered (0.2 μm) to remove cell debris. Streptavidin-coated magnetic beads were treated with biotinylated small molecule or acetylated peptide ligands for 30 minutes at room temperature to generate affinity resins for bromodomain assays. The liganded beads were blocked with excess biotin and washed with blocking buffer (SeaBlock (Pierce), 1% BSA, 0.05% Tween 20, 1 mM DTT) to remove unbound ligand and to reduce nonspecific phage binding. Binding reactions were assembled by combining bromodomains, liganded affinity beads, and test compounds in 1× binding buffer (17% SeaBlock, 0.33×PBS, 0.04% Tween 20, 0.02% BSA, 0.004% Sodium azide, 7.4 mM DTT). Test compounds were prepared as 1000× stocks in 100% DMSO. Kds were determined using an 11-point 3-fold compound dilution series with one DMSO control point. All compounds for Kd measurements are distributed by acoustic transfer (non-contact dispensing) in 100% DMSO. The compounds were then diluted directly into the assays such that the final concentration of DMSO was 0.09%. All reactions performed in polypropylene 384-well plates. Each was a final volume of 0.02 ml. The assay plates were incubated at room temperature with shaking for 1 hour and the affinity beads were washed with wash buffer (1×PBS, 0.05% Tween 20). The beads were then resuspended in elution buffer (1×PBS, 0.05% Tween […] non-biotinylated affinity ligand) and incubated at room temperature with shaking for 30 minutes. The bromodomain concentration in the eluates was measured by qPCR.

VCaP cells = test: Cellular growth inhibition assay for VCaP cells, CellTiter-Glo; type: cell-based, human; details: Homo sapiens, VCaP, 72 h, 72 hours treatment, CellTiter-Glo 2.0
Outline: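 GI50 values come from four-parameter curve fits of luminescence data normalized to a zero baseline. Compound, in medium with 0.5% DMSO, was added one day after plating and left for 72 h before CellTiter-Glo 2.0 addition.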

Compound `Cc1sc2c(c1C)C(c1ccc(Cl)cc1)=N[C@@H](CC(=O)NCCN(C)c1ncc(C(=O)N[C@H]3C(C)(C)[C@H](Oc4ccc(C#N)c(Cl)c4)C3(C)C)cn1)c1nnc(C)n1-2` [Compound I-1, N-[3-(3-chloro-4-cyano-phenoxy)-2,2,4,4-tetramethyl-cyclobutyl]-2-[2-[[2-[(9S)-7-(4-chlorophenyl)-4,5,13-trimethyl-3-thia-1,8,11,12-tetrazatricyclo[8.3.0.02,6]trideca-2(6),4,7,10,12-pentaen-9-yl]acetyl]amino]ethyl-methyl-amino]pyrimidine-5-carboxamide] has a Kd (BRD4-BD1) of 50 to 500 nM.
In the case of `Cc1sc2c(c1C)C(c1ccc(Cl)cc1)=N[C@@H](CC(=O)NCCCN1CCN(CCCOC3CCN(c4ncc(C(=O)N[C@H]5C(C)(C)[C@H](Oc6ccc(C#N)c(Cl)c6)C5(C)C)cn4)CC3)CC1)c1nnc(C)n1-2` [Compound I-10], the Kd (BRD4-BD1) is reported as 50 to 500 nM and the GI50 (VCaP cells) is reported as < 500 nM.
In the case of `Cc1sc2c(c1C)C(c1ccc(Cl)cc1)=N[C@@H](CC(=O)NCCOCCOCCOCCOC1CCN(c3ncc(C(=O)N[C@H]4C(C)(C)[C@H](Oc5ccc(C#N)c(Cl)c5)C4(C)C)cn3)CC1)c1nnc(C)n1-2` [Compound I-11], the Kd (BRD4-BD1) is reported as 500 to 2500 nM and the GI50 (VCaP cells) is reported as < 500 nM.
For `Cc1sc2c(c1C)C(c1ccc(Cl)cc1)=N[C@H](CC(=O)NCCOCCOCCOCCOC1CCN(c3ncc(C(=O)N[C@H]4C(C)(C)[C@H](Oc5ccc(C#N)c(Cl)c5)C4(C)C)cn3)CC1)c1nnc(C)n1-2` [Compound I-13], the Kd (BRD4-BD1) was > 2500 nM and the GI50 (VCaP cells) was > 3000 nM.
In the case of `Cc1sc2c(c1C)C(c1ccc(Cl)cc1)=N[C@@H](CC(=O)NCCOCCOCCOCC1CCN(c3ncc(C(=O)N[C@H]4C(C)(C)[C@H](Oc5ccc(C#N)c(Cl)c5)C4(C)C)cn3)CC1)c1nnc(C)n1-2` [Compound I-17], the Kd (BRD4-BD1) is reported as 50 to 500 nM.
`Cc1sc2c(c1C)C(c1ccc(Cl)cc1)=N[C@@H](CC(=O)NCCOCCOCCOCC1CN(c3ncc(C(=O)N[C@H]4C(C)(C)[C@H](Oc5ccc(C#N)c(Cl)c5)C4(C)C)cn3)C1)c1nnc(C)n1-2` [Compound I-18] was tested, and the Kd (BRD4-BD1) was 50 to 500 nM and the GI50 (VCaP cells) was < 500 nM.
With `Cc1sc2c(c1C)C(c1ccc(Cl)cc1)=N[C@H](CC(=O)NCCOCCOCCOCCOCCN(C)c1ncc(C(=O)N[C@H]3C(C)(C)[C@H](Oc4ccc(C#N)c(Cl)c4)C3(C)C)cn1)c1nnc(C)n1-2` [Compound I-19] the Kd (BRD4-BD1) was > 2500 nM and the GI50 (VCaP cells) was > 3000 nM.
In the case of `Cc1sc2c(c1C)C(c1ccc(Cl)cc1)=N[C@@H](CC(=O)NCCCCCCCOC1CCN(c3ncc(C(=O)N[C@H]4C(C)(C)[C@H](Oc5ccc(C#N)c(Cl)c5)C4(C)C)cn3)CC1)c1nnc(C)n1-2` [Compound I-24], the Kd (BRD4-BD1) is reported as > 2500 nM and the GI50 (VCaP cells) is reported as < 500 nM.
`Cc1sc2c(c1C)C(c1ccc(Cl)cc1)=N[C@@H](CC(=O)NCCCCOCCOC1CCN(c3ncc(C(=O)N[C@H]4C(C)(C)[C@H](Oc5ccc(C#N)c(Cl)c5)C4(C)C)cn3)CC1)c1nnc(C)n1-2` [Compound I-28] was tested, and the Kd (BRD4-BD1) was 500 to 2500 nM and the GI50 (VCaP cells) was < 500 nM.
In the case of `Cc1sc2c(c1C)C(c1ccc(Cl)cc1)=N[C@@H](CC(=O)NCCCN1CCN(CC3CCN(c4ncc(C(=O)N[C@H]5C(C)(C)[C@H](Oc6ccc(C#N)c(Cl)c6)C5(C)C)cn4)CC3)CC1)c1nnc(C)n1-2` [Compound I-36, N-((1r,3r)-3-(3-chloro-4-cyanophenoxy)-2,2,4,4-tetramethylcyclobutyl)-2-(4-((4-(3-(2-((S)-4-(4-chlorophenyl)-2,3,9-trimethyl-6H-thieno[3,2-f][1,2,4]triazolo[4,3-a][1,4]diazepin-6-yl)acetamido)propyl)piperazin-1-yl)methyl)piperidin-1-yl)pyrimidine-5-carboxamide], the Kd (BRD4-BD1) is reported as 50 to 500 nM and the GI50 (VCaP cells) is reported as 500 to 1500 nM.
For `CCN(C)C(=O)C[C@@H]1N=C(c2ccc(OCCOC3CCN(c4ncc(C(=O)N[C@H]5C(C)(C)[C@H](Oc6ccc(C#N)c(Cl)c6)C5(C)C)cn4)CC3)cc2)c2c(sc(C)c2C)-n2c(C)nnc21` [Compound I-66], the Kd (BRD4-BD1) was 500 to 2500 nM and the GI50 (VCaP cells) was < 500 nM.
For `CCNC(=O)C[C@@H]1N=C(c2ccc(OCC3CN(c4ncc(C(=O)N[C@H]5C(C)(C)[C@H](Oc6ccc(C#N)c(Cl)c6)C5(C)C)cn4)C3)cc2)c2c(sc(C)c2C)-n2c(C)nnc21` [Compound I-71], the Kd (BRD4-BD1) was 50 to 500 nM and the GI50 (VCaP cells) was < 500 nM.
In the case of `CCNC(=O)C[C@@H]1N=C(c2ccc(OCCOC3CCN(c4ncc(C(=O)N[C@H]5C(C)(C)[C@H](Oc6ccc(C#N)c(Cl)c6)C5(C)C)cn4)CC3)c(F)c2F)c2c(sc(C)c2C)-n2c(C)nnc21` [Compound I-73], the Kd (BRD4-BD1) is reported as 500 to 2500 nM and the GI50 (VCaP cells) is reported as < 500 nM.
`CCNC(=O)C[C@@H]1N=C(c2ccc(OCCOC3CCN(c4ncc(C(=O)N[C@H]5C(C)(C)[C@H](Oc6ccc(C#N)c(Cl)c6)C5(C)C)cn4)CC3)cc2F)c2c(sc(C)c2C)-n2c(C)nnc21` [Compound I-75] was tested, and the Kd (BRD4-BD1) was 500 to 2500 nM and the GI50 (VCaP cells) was < 500 nM.
Work on `CCNC(=O)C[C@@H]1N=C(c2ccc(OCCOC3CCN(c4ncc(C(=O)N[C@H]5C(C)(C)[C@H](Oc6ccc(C#N)c(Cl)c6)C5(C)C)cn4)CC3)c(F)c2)c2c(sc(C)c2C)-n2c(C)nnc21` [Compound I-76] yielded a Kd (BRD4-BD1) of 500 to 2500 nM and a GI50 (VCaP cells) of 500 to 1500 nM.
For `CCNC(=O)C[C@@H]1N=C(c2ccc(CCCC3CCN(c4ncc(C(=O)N[C@H]5C(C)(C)[C@H](Oc6ccc(C#N)c(Cl)c6)C5(C)C)cn4)CC3)cc2)c2c(sc(C)c2C)-n2c(C)nnc21` [Compound I-95], the Kd (BRD4-BD1) was > 2500 nM and the GI50 (VCaP cells) was 1500 to 3000 nM.
For `Cc1sc2c(c1C)C(c1ccc(CCCOC3CCN(c4ncc(C(=O)N[C@H]5C(C)(C)[C@H](Oc6ccc(C#N)c(Cl)c6)C5(C)C)cn4)CC3)cc1)=N[C@@H](CC(=O)NC(C)C)c1nnc(C)n1-2` [Compound I-100], the Kd (BRD4-BD1) was > 2500 nM and the GI50 (VCaP cells) was 500 to 1500 nM.
For `CCN(C)C(=O)C[C@@H]1N=C(c2ccc(CCCOC3CCN(c4ncc(C(=O)N[C@H]5C(C)(C)[C@H](Oc6ccc(C#N)c(Cl)c6)C5(C)C)cn4)CC3)cc2)c2c(sc(C)c2C)-n2c(C)nnc21` [Compound I-101], the Kd (BRD4-BD1) was > 2500 nM and the GI50 (VCaP cells) was > 3000 nM.
`Cc1sc2c(c1C)C(c1ccc(CCCOC3CCN(c4ncc(C(=O)N[C@H]5C(C)(C)[C@H](Oc6ccc(C#N)c(Cl)c6)C5(C)C)cn4)CC3)cc1)=N[C@@H](CC(=O)NC1CC1)c1nnc(C)n1-2` [Compound I-102] was tested, and the Kd (BRD4-BD1) was 500 to 2500 nM and the GI50 (VCaP cells) was < 500 nM.
With `CCNC(=O)C[C@@H]1N=C(c2ccc(N(C)CC3CN(c4ncc(C(=O)N[C@H]5C(C)(C)[C@H](Oc6ccc(C#N)c(Cl)c6)C5(C)C)cn4)C3)cc2)c2c(sc(C)c2C)-n2c(C)nnc21` [Compound I-107] the Kd (BRD4-BD1) was 50 to 500 nM and the GI50 (VCaP cells) was < 500 nM.
With `CCNC(=O)C[C@@H]1N=C(c2ccc(N(C)CCN3CCN(c4ncc(C(=O)N[C@H]5C(C)(C)[C@H](Oc6ccc(C#N)c(Cl)c6)C5(C)C)cn4)CC3)cc2)c2c(sc(C)c2C)-n2c(C)nnc21` [Compound I-108] the Kd (BRD4-BD1) was 50 to 500 nM and the GI50 (VCaP cells) was 500 to 1500 nM.
For `CCNC(=O)C[C@@H]1N=C(c2ccc(N3CCC(N(C)C4CCN(c5ncc(C(=O)N[C@H]6C(C)(C)[C@H](Oc7ccc(C#N)c(Cl)c7)C6(C)C)cn5)CC4)CC3)cc2)c2c(sc(C)c2C)-n2c(C)nnc21` [Compound I-113], the Kd (BRD4-BD1) was < 50 nM and the GI50 (VCaP cells) was < 500 nM.
`CCNC(=O)C[C@@H]1N=C(c2ccc(N3CCC(OC4CCN(c5ncc(C(=O)N[C@H]6C(C)(C)[C@H](Oc7ccc(C#N)c(Cl)c7)C6(C)C)cn5)CC4)CC3)cc2)c2c(sc(C)c2C)-n2c(C)nnc21` [Compound I-114] was tested, and the Kd (BRD4-BD1) was 50 to 500 nM and the GI50 (VCaP cells) was < 500 nM.
Compound `CCNC(=O)C[C@@H]1N=C(c2ccc(N(C)C3CN(CC4CCN(c5ncc(C(=O)N[C@H]6C(C)(C)[C@H](Oc7ccc(C#N)c(Cl)c7)C6(C)C)cn5)CC4)C3)cc2)c2c(sc(C)c2C)-n2c(C)nnc21` [Compound I-119] has a Kd (BRD4-BD1) of 50 to 500 nM and a GI50 (VCaP cells) of 500 to 1500 nM.
